Test results taken from patent US5994365A, “Substituted diazaanthracene compounds having pharmaceutical utility” (Diazans Limited, priority 1998, dated 1999).
Values after ≈ are worked out from the molar mass of the structure shown. Read-outs that look alike come from different tables or passages of the source.

Experiments:
S. aureus = conditions: taken from Antibiotics in Laboratory Medicine; cited from earlier work
ASPC-1 = assay: Antineoplastic activity, fluorescence based live-cell/dead cell ratio; conditions: Homo sapiens, ASPC1, ASPC-1
Experimental: (§1) Values of IC50 (inhibitory concentration 50%) were calculated from the relative percent transmitted light as detected on a fluorescence 96 well plate reader.

ZR-75-1 = assay: as above; conditions: Homo sapiens, ZR-75-1, ZR-75-1
Experimental: as §1

E. coli ATCC 25922 [1] = assay: Microbroth dilution assay of antimicrobial susceptibility (MIC); type: cell-based; conditions: Escherichia coli, ATCC25922; microdilution, CAMHB, 37° C., 18 hrs
Experimental: It is described below, using E. coli ATCC® 25922, S. aureus ATCC® 25923, and P. aeruginosa ATCC® 27853. Prepare 0.0128 g DAA in 10 mL dH2 O (or 95% EtOH, methanol or DMSO if H2 O insoluble)=1280 μg/mL (stock solution). Dilute DAA stock solution 1:10 with CAMHB (Cation-Adjusted Mueller Hinton Broth): 0.5 mL DAA stock solution+4.5 mL CAMHB=128 μg/mL (DAA working solution). Pipette 100 μl of sterile CAMHB per well into columns 2-12 of rows A-G using Eppendorf repeater pipette. Pipette 100 μl per well of sterile-filtered DAA working solution into columns 1 and 2 of rows A, C, E, G using Jensen electric pipette. Mix and transfer 100 μl from column 2 to 3 of rows A, C, E, G using Jensen pipette. Repeat to column 12 then discard 100 μl from column 12. Rows B, D and F are positive growth control lanes for each organism and contain only CAMHB and the organism--no DAA. Row H is the media additive control lane, if necessary (e.g. MeOH, EtOH, DMSO etc.). The concentration of the media additive is obtained by doing a 1:10 dilution of the additive with CAMHB (0.5 mL additive+4.5 mL CAMHB). Row G is considered to be "negative growth control" and is loaded with only CAMHB and the DAA. Inoculate 0.5 mL TSB (Trypticase Soy Broth) tubes with 3 single colonies each of E. coli, S. aureus, and P. Aeruginosa from TSA plates using sterile needle. Incubate @ 37° C. for 4-6 hr. […]

S. aureus ATCC 25923 [2] = assay: as above; type: cell-based, Staphylococcus aureus; conditions: microdilution, CAMHB, 37° C.
Experimental: It is described below, using E. coli ATCC® 25922, S. aureus ATCC® 25923, and P. aeruginosa ATCC® 27853. Prepare 0.0128 g DAA in 10 mL dH2 O (or 95% EtOH, methanol or DMSO if H2 O insoluble)=1280 μg/mL (stock solution). Dilute DAA stock solution 1:10 with CAMHB (Cation-Adjusted Mueller Hinton Broth): 0.5 mL DAA stock solution+4.5 mL CAMHB=128 μg/mL (DAA working solution). Pipette 100 μl of sterile CAMHB per well into columns 2-12 of rows A-G using Eppendorf repeater pipette. Pipette 100 μl per well of sterile-filtered DAA working solution into columns 1 and 2 of rows A, C, E, G using Jensen electric pipette. Mix and transfer 100 μl from column 2 to 3 of rows A, C, E, G using Jensen pipette. Repeat to column 12 then discard 100 μl from column 12. Rows B, D and F are positive growth control lanes for each organism and contain only CAMHB and the organism--no DAA. Row H is the media additive control lane, if necessary (e.g. MeOH, EtOH, DMSO etc.). The concentration of the media additive is obtained by doing a 1:10 dilution of the additive with CAMHB (0.5 mL additive+4.5 mL CAMHB). Row G is considered to be "negative growth control" and is loaded with only CAMHB and the DAA. Inoculate 0.5 mL TSB (Trypticase Soy Broth) tubes with 3 single colonies each of E. coli, S. aureus, and P. Aeruginosa from TSA plates using sterile needle. Incubate @ 37° C. for 4-6 hr. Measure out 100 mL CAMHB using the sterile 100 mL volumetric flask. Pour the excess into a sterile reagent reservoir. Pipette 0.5 mL and discard, leaving 99.5 mL in each of the 3-Erlenmeyer flasks. Set aside. Use the excess CAMHB for the 1:10 dilution of inoculum: 0.5 mL inoculum+4.5 mL CAMHB. Perform a 1:200 dilution of inoculum: 0.5 mL of 1:10 diluted inoculum+99.5 mL CAMHB from previous step. Pipette 100 μl (using Eppendorf repeater pipette) E. coli into each well in columns 1-12 of rows A and B and columns 1-4 of row H (if media additive control lane necessary). Pipette 100 μl P. aeruginosa into each well in columns 1-12 of rows C and D and columns 5-8 of row H (if media additive control lane is necessary). Pipette 100 μl S. aureus into each well in columns 1-12 of rows E and F and columns 9-12 of row H (if media additive control lane is necessary). Incubate microtiter plates @ 37° C. for 18 hrs. The lowest concentration of antimicrobial agent that results in significant inhibition of visible growth represents the MIC (Minimal Inhibitory Concentration).

41-SK = assay: Antineoplastic activity, fluorescence based live-cell/dead cell ratio; set-up: species or system human
Experimental: as §1

C. albicans ATCC 90028 = assay: In vitro antifungal susceptibility assay adapted from NCCLS (MIC); type: cell-based, Candida albicans
Experimental: (§2) Compounds of the invention also display antifungal activities. […] Using C. albicans ATCC® 90028, C. neoformans ATCC® 90112 and T. glabrata ATCC® 90030, the protocol is performed as follows:
(§3) Prepare 0.0128 g DAA in 10 mL dH2 O (or other if H2 O insoluble)=1280 μg/mL (stock solution). Dilute DAA stock solution 1:10 with RPMI-1640: 0.5 mL DAA stock solution+4.5 mL RPMI-1640=128 μg/mL (DAA working solution).
(§4) Inoculate rows A-H, columns 2-12 with 100 μl of RPMI-1640 using Eppendorf repeater pipette. Inoculate rows A-C columns 1 and 2 with 100 μl of 1st antibiotic (i.e. DAA-1) using electronic pipette. Inoculate rows E-G columns 1 and 2 with 100 μl of 2nd antibiotic (i.e. DAA-2) using electronic pipette. […] Plate is now ready for fungal inocula, which involves pipetting 100 μl of the inocula into all wells in rows A-C columns 1-12 and rows E-G columns 1-12. […]
(§5) Five colonies greater than 1 mm in diameter are suspended in a spectrophotometer cuvette containing 5 mL of sterile, 0.85% saline (colonies are obtained from 24 hrs. old Candida and Torulopsis cultures, while Cryptococcus colonies are chosen from 48 hrs. old cultures). Spectrophotometer is set to read % transmission at a wavelength of 530 nm, and is standardized using two cuvettes. […] Fungal inoculum is now prepared and ready to be introduced to microplates. […]

T. glabrata ATCC 90030 = assay: as above; type: cell-based, Torulopsis glabrata; conditions: Nakaseomyces glabratus, ATCC90030; RPMI-1640; read-out: MIC
Experimental: as §2, §3, §4, §5

C. neoformans ATCC 90112 = assay: as above; type: cell-based, Cryptococcus neoformans; conditions: Cryptococcus neoformans, ATCC90112; RPMI-1640; read-out: MIC
Experimental: as §2, §3, §4, §5

[3] = system: Pseudomonas aeruginosa ATCC 27853; assay: Macrobroth dilution testing for antimicrobial activity (MIC); type: cell-based; conditions: ATCC27853, 18 h, macrodilution, read-out: Minimum Inhibitory Concentration
Experimental: (§6) A working antimicrobial solution was prepared by diluting the test compound in Mueller Hinton Broth (MHB) to the highest final concentration desired. The test was performed in 13×100 mm test tubes. Two mL of the working solution of test compound were added to test tube 1 of the dilution series. To each remaining tube, 1.0 mL of MHB was added. A sterile pipette was used to transfer 1.0 mL from tube 1 to tube 2. After thorough mixing 1.0 mL was transferred (with a separate pipette for this and each succeeding transfer) to tube 3. This process was continued to the next to last tube from which 1.0 mL was removed and discarded. The last tube received no antimicrobial agent and served as a growth control. The inoculum was prepared and adjusted to contain […] by adjusting the turbidity of a broth culture to match to 0.5 McFarland standard. It was then further diluted 1:200 in broth. One mL of the adjusted inoculum was added to each test tube. The final concentrations of antimicrobial agents in this test were half those of the initial dilution series because of the addition of an equal volume of inoculum in broth. Tubes were incubated at 35° C. for 18 hours. […] A very faint haziness or a small button is usually disregarded.

[4] = system: Staphlococcus aureus ATCC 25923; assay: as above; type: cell-based; conditions: Staphylococcus aureus, ATCC25923, 18 h, macrodilution, read-out: Minimum Inhibitory Concentration
Experimental: as §6

[5] = system: Escherichia coli ATCC 25922; assay: as above; type: cell-based; conditions: ATCC25922, 18 h, macrodilution, read-out: Minimum Inhibitory Concentration
Experimental: as §6

Hymenolepis nata = conditions: U.S. Pat. No. 3,862,945; cited from earlier work
E. coli ATCC 25922 [6] = conditions: control limits, Gentamicin 10 mcg disk; cited from earlier work
S. aureus ATCC 25923 [7] = conditions: control limits, Gentamicin 10 mcg disk; cited from earlier work
P. aeruginosa ATCC 27853 = conditions: control limits, Gentamicin 10 mcg disk; cited from earlier work
[8] = Staphylococcus aureus, ATCC25923, 18 h, read-out: MIC

**Q.** With `CN(C)C1C(=O)C(C(N)=O)=C(O)C2(O)C(=O)C3=C(O)c4c(O)cccc4C(C)(O)C3CC12` (centres unmarked) [Tetracycline] as the compound, how does the MIC (S. aureus) read?
**A.** 0.5 to 32 µg/mL

**Q.** Which results are given for `Cc1cc2cc3c(C)c[n+]([O-])cc3cc2[n+]([O-])c1` [Derivative No. 7]?
**A.** IC50 (ASPC-1): 9.3 µg/mL; IC50 (ZR-75-1): 1.9 µg/mL; MIC (E. coli ATCC 25922 [1]): 4 µg/mL (≈ 16.6 µM); MIC (S. aureus ATCC 25923 [2]; [8]): 0.125 µg/mL (≈ 0.52 µM); IC50 (41-SK; Homo sapiens, read-out: IC50): 11.3 µg/mL

**Q.** Which MIC (S. aureus) does the source give for `CC1(C)S[C@@H]2[C@H](NC(=O)Cc3ccccc3)C(=O)N2[C@H]1C(=O)O` [Penicillin] here?
**A.** 8 to 16 µg/mL

**Q.** For `O=C(O)c1cn(C2CC2)c2cc(N3CCNCC3)c(F)cc2c1=O` [Ciprofloxacin], which MIC (S. aureus) is on record?
**A.** 0.25 to 1 µg/mL

**Q.** With `Cc1cncc2cc3c(C)cncc3cc12` [Example 17] as the compound, how does the MIC (S. aureus ATCC 25923 [2]; [8]) read?
**A.** 64 µg/mL (≈ 307 µM)

**Q.** What does the source list for `Cc1cnc2c(c1)C(=O)c1c(C)cncc1C2=O` [Example 14]?
**A.** MIC (C. albicans ATCC 90028; Candida albicans, ATCC90028, RPMI-1640, read-out: MIC): 8 µg/mL (≈ 33.6 µM); MIC (S. aureus ATCC 25923 [2]; [8]): 1 µg/mL (≈ 4.2 µM); MIC (T. glabrata ATCC 90030): 4 µg/mL (≈ 16.8 µM); MIC (C. neoformans ATCC 90112): 4 µg/mL (≈ 16.8 µM)

**Q.** What does the source list for `Cc1cnc2cc3cncc(C)c3cc2c1` [Derivative No. 1]?
**A.** IC50 (ASPC-1): 58 µg/mL; IC50 (ZR-75-1): 47.3 µg/mL; MIC (C. albicans ATCC 90028; RPMI-1640, listed as 1,8-DAA-3,6-(Me)2.HCl): 64 µg/mL (≈ 307 µM); MIC [3]: > 64 µg/mL; MIC [4]: 4 µg/mL (≈ 19.2 µM); MIC [5]: 64 µg/mL (≈ 307 µM); MIC (S. aureus ATCC 25923 [2]; 18 hrs, listed as 1,8-DAA-3,6-(Me)2.HCl): 32 µg/mL (≈ 154 µM); IC50 (41-SK; listed as 1,8-DAA(Me)2 · HCl): 139.2 µg/mL

**Q.** For `CC1NCc2cc3c(cc2C1c1ccccc1)CNC(C)C3c1ccccc1.Cl.Cl` (centres unmarked) [1,2,3,4,6,7,8,9-octahydro-3,8-dimethyl-4,9-diphenyl-pyrido[3,4-g]isoquinoline dihydrochloride], which anti-parasitic activity (Hymenolepis nata) is on record?
**A.** has an anti-parasitic activity

**Q.** With Gentamicin as the compound, how does the control zone diameter (E. coli ATCC 25922 [6]) read?
**A.** 19-26 mm

**Q.** And the control zone diameter (S. aureus ATCC 25923 [7])?
**A.** 19-27 mm

**Q.** What about the MIC (S. aureus) of the same compound?
**A.** 0.25 to 16 µg/mL

**Q.** What about the control zone diameter (P. aeruginosa ATCC 27853) of the same compound?
**A.** 16-21 mm

**Q.** Which IC50 (ASPC-1) does the source give for `Cc1cc2cc3c(C)c[n+](C)cc3cc2[n+](C)c1` [Example 8.4, N,N'-dimethyl-1,8-DAA-3,6-(Me)2 tetrafluoroborate hemihydrate] here?
**A.** 62.5 µg/mL

**Q.** What about the IC50 (ZR-75-1) of the same compound?
**A.** 38.3 µg/mL

**Q.** What about the IC50 (41-SK; Homo sapiens, read-out: IC50) of the same compound?
**A.** 35.9 µg/mL
